From patent publication US6649647B1, “Trioxane derivatives” (priority 1998, dated 2003)

Columns and labels:
Type in all cases: cell-based
[1] = tested on: human colon cancer cell line HT 29; assay: Growth inhibition assay (MTT), HT 29; settings: Table VI, 6 days incubation
Protocol: (§1) As another example of evaluation of cytotoxicity, cancer cell lines were also used for a growth inhibition assay. The human colon cancer cell lines SW 480 and HT 29 and the murine melanoma cell line B16F10 were used. […] After confluent growth, the cells were trypsinated and resuspended in RPMI plus 10% FCS to a cell concentration of 50000 cells per ml in case of colon cancer cell lines and 20000 in case of B16F10. 100 μl of this cell suspension were transferred in each well of a 96 well microtiter plate and incubated for 1 day at 37° C. in a CO2-incubator. Subsequently, further 100 μl RPMI medium and 1 μl of a DMSO solution, containing the artemisinin derivatives were added. The growth inhibition was estimated after 6 days incubation at 36° C. using the MTT assay.
(§2) 25 μl MTT solution (3-(4,5-dimethylthiazol-2-yl)-2,5-diphenyltetrazolium-bromid) of a starting concentration of 5 mg/ml H2O were added and incubated at 37° C. for 5 h. Subsequently, 100 μl iso-propanol per well were added. After 15 min incubation 100 μl H2O were added. After 30 min shaking, the extinction was measured at 595 nm using a ELISA-Multiplate Reader.

[2] = tested on: human colon cancer cell line SW 480; assay: Growth inhibition assay (MTT), SW 480; settings: Table VI, 6 days incubation
Protocol: as §1, §2

[3] = tested on: murine melanoma cell line B16F10; assay: Growth inhibition assay (MTT), B16F10; settings: Table VI, 6 days incubation
Protocol: as §1, §2

[4] = tested on: Rat 6 subclone of the immortalized F2408 embryo cell line (R6); assay: Screening for cytotoxicity, cell count by Coulter Counter, R6 cells; settings: for LD50 (Day 3) R6: day 3 after addition; for LD50 (Day 6) R6: day 6 after addition
Protocol: (§3) Compounds of the invention were screened against Rat 6 subclone of the immortalized F2408 embryo cell line, and Rat 6 (R6T24) cells transfected and transformed by a c-H-ras oncogene. The screening involved placing the R6 and R6T24 cell lines plated at 10^3 cells per well into a 12-well microtiter culture plate for 24 hours. The compounds were added at final concentrations from 0.1-100 μM, and cells were trypsized and counted by Coulter Counter at day 3 and day 6 after the addition. Untreated cells were assigned a survival value of 100%.

[5] = tested on: Rat 6 (R6T24) cells transfected and transformed by a c-H-ras oncogene; assay: Screening for cytotoxicity, cell count by Coulter Counter, R6T24 cells; settings: R6T24 cell line; for LD50 (Day 3) R6T24: day 3 after addition; for LD50 (Day 6) R6T24: day 6 after addition
Protocol: as §3

Compound | LD50 HT 29 [1] [nM] | LD50 SW 480 [2] [nM] | LD50 B16F18 [3] [nM] | LD50 (Day 3) R6 ([4]; Table V) [µM] | LD50 (Day 6) R6 ([4]; Table V) [µM] | LD50 (Day 3) R6 ([4]; Table VA) [µM] | LD50 (Day 6) R6 ([4]; Table VA) [µM] | LD50 (Day 3) R6T24 ([5]; Table V) [µM] | LD50 (Day 6) R6T24 ([5]; Table V) [µM] | LD50 (Day 3) R6T24 ([5]; Table VA) [µM] | LD50 (Day 6) R6T24 ([5]; Table VA) [µM]
C[C@@H]1CC[C@H]2[C@@H](C)C(c3ccc4ccccc4c3)O[C@@H]3O[C@@]4(C)CC[C@@H]1[C@]32OO4 (some centres unmarked) [Example 28] | 300 | 150 | 300 |  |  |  |  |  |  |  | 
CC1CCC2C(C)C(F)OC3OC4(C)CCC1C32OO4 (stereo not drawn) [Example 1, 10β-fluoro-10-deoxodihydroartemisinin] |  |  |  | 1.18 | 1.63 | 1.28 | 1.62 | 1.93 | 0.61 | 1.93 | 0.61
CC1CCC2C(C)C(Oc3ccnc4cc(C(F)(F)F)ccc34)OC3OC4(C)CCC1C32OO4 (stereo not drawn) [Example 12, 10β-[4′-(7′-trifluoromethyl-quinolinoxy)]dihydroartemisinin] | 2000 | 150 | 300 |  |  |  |  |  |  |  | 
10α and β-[(2′-naphthylmethyl)oxy]dihydroartemisinin [Example 13β] | 600 | 300 | 400 |  |  |  |  |  |  |  | 
COc1cc(OC)c(C2OC3OC4(C)CCC5C(C)CCC(C2C)C35OO4)c(OC)c1 (mixture of isomers) [Example 27] |  |  |  | 0.57 | 1.10 | 0.57 | 1.10 | 0.67 | 0.26 | 0.67 | 0.26
COc1ccccc1C1O[C@@H]2O[C@@]3(C)CC[C@H]4[C@H](C)CC[C@@H]([C@H]1C)[C@@]24OO3 (some centres unmarked) [Example 29] | >10000 | >10000 | >10000 |  |  |  |  |  |  |  | 
C[C@H]1[C@H](OC(=O)CCC(=O)O)O[C@@H]2O[C@@]3(C)CC[C@H]4[C@H](C)CC[C@@H]1[C@@]24OO3 [Artesunate, artesunate, reference compound] |  |  |  | 2.80 | 2.06 | 2.80 | 2.08 | 1.77 | 1.04 | 1.77 | 1.04
CC1CCC2C(C)C(OCc3cccc(F)c3)OC3OC4(C)CCC1C32OO4 (centres unmarked) [Example 78] | 1500 | 250 | 200 |  |  |  |  |  |  |  | 
C[C@@H]1CC[C@H]2[C@@H](C)C(OC(=O)c3c4ccccc4nc4ccccc34)O[C@@H]3O[C@@]4(C)CC[C@@H]1[C@]32OO4 (some centres unmarked) [Example 65] |  |  |  | 2.73 | 2.52 |  |  | 3.21 | 1.60 |  | 
CC[C@@]1(O)C(=O)OCc2c1cc1n(c2=O)Cc2cc3ccccc3nc2-1 [CAMPTOTHECIN, reference compound] | 4 | 9 | 30 |  |  |  |  |  |  |  | 
CC1CCC2[C@@H](C)C(=O)OC3O[C@]4(C)CCC1C32OO4 (some centres unmarked) [Artemisinin, artemisinin, reference compound] |  |  |  | >100.00 | 4.08 | >100.00 | 4.08 | 3.09 | 1.75 | 3.49 | 1.75
C[C@@H]1CC[C@H]2[C@@H](C)C(=O)N(Cc3cccc(F)c3)[C@@H]3O[C@@]4(C)CC[C@@H]1[C@@]23OO4 [Example 87] |  |  |  | >50.00 | 17.5 |  |  | 6.14 | 1.07 |  | 
C[C@@H]1CC[C@H]2[C@@H](C)C(Nc3ccc(I)cc3)O[C@@H]3O[C@@]4(C)CC[C@@H]1[C@]32OO4 (some centres unmarked) [Example 34] | 500 | 100 | 150 |  |  |  |  |  |  |  | 
C[C@@H]1CC[C@H]2[C@@H](C)C(=O)N(Cc3ccccc3)[C@@H]3O[C@@]4(C)CC[C@@H]1[C@@]23OO4 [Example 88] |  |  |  | 46.67 | 18.49 | 47.0 | 18.49 | 10.45 | 5.24 | 10.45 | 5.24
C[C@@H]1CC[C@H]2[C@@H](C)C(Nc3ccc(Br)cc3)O[C@@H]3O[C@@]4(C)CC[C@@H]1[C@]32OO4 (some centres unmarked) [Example 33] | 500 | 60 | 200 |  |  |  |  |  |  |  | 
CC1CCC2C(CN(Cc3ccccc3)Cc3ccccc3)C(=O)OC3OC4(C)CCC1C32OO4 (centres unmarked) [Example 17, 9-(N,N-dibenzylaminomethyl)artemisinin] |  |  |  | 1.57 | 2.58 |  |  | 1.81 | 0.54 |  | 
CC1CCC2[C@@H](C)C(=O)N(Cc3ccccc3)C3O[C@]4(C)CCC1C23O4 (some centres unmarked) [D, reference compound] |  |  |  | >50.00 | >50.00 | >50 | >50 | >50.00 | >50.00 | >50 | >50
COc1cc(OC)c(C2O[C@@H]3O[C@@]4(C)CC[C@H]5[C@H](C)CC[C@@H]([C@H]2C)[C@@]35OO4)c(OC)c1 (some centres unmarked) [Example 59] | 1500 | 1500 | 1500 |  |  |  |  |  |  |  | 
CC1CCC2C(C)C(OCc3cccc4c3ccc3ccccc34)OC3OC4(C)CCC1C32OO4 (centres unmarked) [Example 82] |  |  |  |  |  | 0.12 | 0.12 |  |  | 0.05 | 0.06
Cc1cc(C)c(C2O[C@@H]3O[C@@]4(C)CC[C@H]5[C@H](C)CC[C@@H]([C@H]2C)[C@@]35OO4)c(C)c1 (some centres unmarked) [Example 60] | 300 | 150 | 250 |  |  |  |  |  |  |  | 
CC1CCC2C(C)C(OCc3ccc(F)cc3)OC3OC4(C)CCC1C32OO4 (centres unmarked) [Example 79] | 1500 | 200 | 200 |  |  |  |  |  |  |  | 
C[C@@H]1CC[C@H]2[C@@H](C)C(Nc3ccc(F)cc3)O[C@@H]3O[C@@]4(C)CC[C@@H]1[C@]32OO4 (some centres unmarked) [Example 31] |  |  |  | 0.34 | 0.27 | 0.34 | 0.27 | 0.23 | 0.14 | 0.23 | 0.14
CCOC(=O)CCC1C(=O)OC2OC3(C)CCC4C(C)CCC1C24OO3 (centres unmarked) [Example 19, 9-[2-(ethoxycarbonyl)ethyl]artemisinin] |  |  |  | 52.00 | 59.00 |  |  | 28.12 | 24.95 |  | 
CC1CCC2C(C)C(OC(=O)c3ccc4c(c3)C(=O)c3ccccc3C4=O)OC3OC4(C)CCC1C32OO4 (centres unmarked) [Example 66] |  |  |  | 0.34 | 3.60 | 0.34 | 3.6 | 0.32 | 0.32 | 0.32 | 0.32
C[C@@H]1CC[C@H]2[C@@H](C)C(N3CCN(C)CC3)O[C@@H]3O[C@@]4(C)CC[C@@H]1[C@]32OO4 (some centres unmarked) [Example 51] |  |  |  |  |  | 0.33 | 0.12 |  |  | 0.33 | 0.11
CO[C@H]1O[C@@H]2O[C@@]3(C)CC[C@H]4[C@H](C)CC[C@@H]([C@H]1C)[C@@]24OO3 [Artemether, artemether, reference compound] |  |  |  | >100.00 | 1.0 | >100 | 0.6 | >100.00 | 1.8 | >100 | 0.71
CC1CC[C@H]2[C@@H](C)C(=O)NC3O[C@]4(C)CCC1C32OO4 (some centres unmarked) [Example 14, 11-azaartemisinin] |  |  |  | >50.00 | 1.22 | >50 | 1.22 | 0.18 | 0.09 | 0.18 | 0.09
